Values after ≈ are worked out from the molar mass of the structure shown.

Data set [1] concerns EGFP-α-tubulin H2B-mCherry HeLa Kyoto cells. As to the kind of experiment: HeLa cell toxicity, 12-hour confocal time-lapse imaging. Format: cell-based, human. The note with it: time-lapse imaging, concentration not given. The protocol:
For phototoxicity experiments, confocal time-lapse imaging of HeLa Kyoto H2B-mCherry eGFP-α-tubulin cells for 12 hours was performed in DMEM further supplemented with 25 mM HEPES in order to achieve CO2 independent media. Confocal time-lapse imaging was performed on a Zeiss LSM 710 using a Plan Apo 20×/0.8 objective, with the following parameters: 2% laser intensity at λexc=488 nm, 3% laser intensity at λexc=543 nm, 1.2× zoom, average 4, line step 1, 1000×1000 pixels, 0.35 μm pixel size, 0.65 μs dwell time, 3 slice/z-stack with 7 μm between slices at every 10 minutes.
To test the cytotoxicity of neurelaxin-A in live-cell fluorescence microscopy, time-lapse EGFP-α-tubulin H2B-mCherry labeled HeLa Kyoto cells were imaged in a confocal microscope (FIG. 4a).
Cells were treated with 50 μM neurelaxin-A and imaged for 12 hours applying 3 z-sections every 10 minutes.

For data set [2] the following is noted: cited from earlier work; for solubility: Képiró et al., Angew. Chem. Int. Ed., 2014.
For data set [3], the system named is myosin 2. The note with it: Lucas-Lopez et al., 2008; cited from earlier work.
The subject of data set [4] is cannabinoid-induced working memory loss. The data set is described as follows: Novel object recognition (NOR) test with CP55,940. The note with it: CP55,940 1 hour prior to familiarization, no neurelaxin-A. It is filed as in vivo. The protocol: In this experiment, a novel object recognition (NOR) test was performed.
In this test animals are presented to two objects and it will explore them for a while. After, one of the objects is changed for a new and different one. Under normal circumstances animals will be attracted to the novel object and will spend more time exploring it, by comparison to the older and already known object. Animals with memory deficit will explore both objects equally.
The synthetic cannabinoid CB1R agonist CP55,940 is administrated 1 hour prior to the familiarization step. Thirty minutes prior to the familiarization animals are either treated or not with neurelaxin-A.

Turning to `Cc1ccc2c(c1)C(=O)C1(O)CCN(c3ccccc3)C1=N2` (stereo not drawn) [Blebbistatin], the “cytotoxic phenotype in HeLa Kyoto cells (positive control)” value in data set [1] was “cells round up from the surface and eventually die”. The solubility entry in data set [2] is given as “around 20 μM”. For the same molecule, the “water solubility: concentration above which slow precipitation is observed” value in data set [2] (background statement) is 10 µM (≈ 2.92 µg/mL).
Usually IC50 stands for the concentration that gives 50% inhibition. With `O=C1c2ccc([N+](=O)[O-])cc2N=C2N(c3ccccc3)CCC12O` (stereo not drawn) [Nitroblebbistatin], the half-inhibitory concentration (IC50) in data set [3] was 27.5 µM.
For the molecule `Cc1ccc2c(c1)C(=O)C1(O)CCN(c3ccc([N+](=O)[O-])cc3)C1=N2` (stereo not drawn) [Para-nitroblebbistatin], the solubility entry in data set [2] is reported as “around 20 μM”.
For `CCCCCCC(C)(C)c1ccc([C@@H]2C[C@H](O)CC[C@H]2CCCO)c(O)c1` [CP55,940, reference compound], the “NOR test: exploration of familiar and novel object” value in data set [4] is on record as “spend similar time exploring both objects”.

The values are drawn from patent US10858357B2, “Water-soluble myosin 2 inhibitors for the treatment of neurological, neuropathic or psychiatric diseases” (PARIS SCIENCES ET LETTRES-QUARTIER LATIN, priority 2016, dated 2020).
